Here are results for one compound from ChEMBL document CHEMBL2073882, “Wild-type p53-mediated induction of rat mdr1b expression by the anticancer drug daunorubicin” (J Biol Chem, 1998).

For this data set, the target named is ATP-dependent translocase ABCB1 (Rattus norvegicus, UniProt P43245). In words: TP_TRANSPORTER: RNase protection assay in vitro, rat hepatoma H-4-II-E cells. It counts as functional, cell-based.
ATP-dependent translocase ABCB1, sequence (P43245 whole entry): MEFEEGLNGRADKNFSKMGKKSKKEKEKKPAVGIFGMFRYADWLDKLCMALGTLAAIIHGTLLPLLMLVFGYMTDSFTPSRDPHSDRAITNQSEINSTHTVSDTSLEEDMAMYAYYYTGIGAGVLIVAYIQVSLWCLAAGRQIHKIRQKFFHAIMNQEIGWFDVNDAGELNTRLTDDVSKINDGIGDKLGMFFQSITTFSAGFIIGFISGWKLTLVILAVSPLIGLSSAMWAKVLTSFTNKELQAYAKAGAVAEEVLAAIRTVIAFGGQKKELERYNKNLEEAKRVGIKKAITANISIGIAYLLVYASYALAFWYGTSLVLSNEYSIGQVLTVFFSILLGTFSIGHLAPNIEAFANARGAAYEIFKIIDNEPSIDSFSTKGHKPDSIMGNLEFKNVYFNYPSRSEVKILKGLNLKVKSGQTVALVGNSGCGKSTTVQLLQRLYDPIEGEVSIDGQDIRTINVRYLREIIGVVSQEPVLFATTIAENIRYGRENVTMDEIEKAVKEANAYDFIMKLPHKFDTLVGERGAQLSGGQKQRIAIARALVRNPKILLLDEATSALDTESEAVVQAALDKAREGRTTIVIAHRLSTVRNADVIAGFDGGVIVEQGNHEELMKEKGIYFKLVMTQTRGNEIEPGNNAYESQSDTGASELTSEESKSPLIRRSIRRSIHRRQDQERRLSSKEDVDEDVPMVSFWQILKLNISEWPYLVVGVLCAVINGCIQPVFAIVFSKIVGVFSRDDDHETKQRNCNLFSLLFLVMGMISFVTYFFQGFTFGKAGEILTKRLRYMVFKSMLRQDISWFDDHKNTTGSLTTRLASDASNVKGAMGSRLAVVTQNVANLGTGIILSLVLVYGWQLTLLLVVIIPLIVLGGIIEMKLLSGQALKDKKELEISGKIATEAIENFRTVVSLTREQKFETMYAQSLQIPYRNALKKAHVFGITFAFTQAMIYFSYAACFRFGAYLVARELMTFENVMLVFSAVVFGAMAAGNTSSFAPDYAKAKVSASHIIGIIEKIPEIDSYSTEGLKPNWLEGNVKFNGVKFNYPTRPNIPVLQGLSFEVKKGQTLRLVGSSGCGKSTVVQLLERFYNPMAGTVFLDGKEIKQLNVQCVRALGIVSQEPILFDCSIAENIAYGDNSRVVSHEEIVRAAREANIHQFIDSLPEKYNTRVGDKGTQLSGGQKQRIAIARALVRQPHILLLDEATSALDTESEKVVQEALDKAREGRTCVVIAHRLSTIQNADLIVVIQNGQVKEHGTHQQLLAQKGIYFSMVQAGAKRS

As to `COc1cccc2c1C(=O)c1c(O)c3c(c(O)c1C2=O)C[C@@](O)(C(C)=O)C[C@@H]3O[C@H]1C[C@H](N)[C@H](O)[C@H](C)O1` [DAUNORUBICIN], the Activity entry was “inducer [+]”.
